Patent US10351519B2, “Sulfamate derivative compounds, processes for preparing them and their uses” (BIO-PHARM SOLUTIONS CO., LTD., priority 2016, dated 2019)

What was measured:
ICR mice [1] = assay: Anti-epilepsy activity, MES test, mouse; format: in vivo
Description: In the MES test (Ref., G. Villetti et al. Neuropharmacology 40 (2001) 866-878), an electrical stimulus (mice: 50 mA, 60 Hz, 0.2 sec, and rats: 150 mA, 60 Hz, 0.2 sec in the test animal) supplied by an 11A Shocker (IITC Life Science Company) was delivered through corneal electrodes. All mice or rats assigned to any electroshock at peak time were treated with each test compound sample which was dissolved in 30% PEG 400 or 20% tween 80 prepared by saline solvent applied orally before the test. […] Three doses of the test sample were administered orally to 9-18 animals (3-6 mice per dose) for evaluating the respective doses at which 50% of the animals were protected from seizure (ED50). The ED50 value (median effective dose) was calculated by Litchfield and Wicoxon log-probit method which is a dose-response relationship. Experimental animals, male ICR mice and male SD rats, were purchased from OrientBio, Samtako, or Nara Biotech, Korea, and housed in cages (4-5 mice or 3 rats per cage) for 4-5 days. The range of mice body weight was between 19 and 25 grams and range of rats body weight was between 100 and 130 grams.

ICR mice [2] = assay: Chemical induced seizure model (PIC, picrotoxin); format: in vivo
Description: Picrotoxin (PIC) were used to induce the behavioral seizures in the experiments. Male ICR mice (purchased from Orient Bio Inc. Korea) of body weight 19-26 g (mice) were used for these studies. The test materials were administered intraperitoneal (ip) route in a volume of 10 ul/g (mice) weight in mice, respectively. Pharmacological effects of the test materials were evaluated to compared test groups (n=6) with a control group (n=6). Control group was administrated vehicle, only. The peak time was determined by administration of test material's random dose for 0.5, 1, 2, 4 hour. The time that the most protect was defined as a peak time and ED50 was determined by other dose administration at the peak time. Chemical (PIC) was dissolved in 0.9% saline and administered subcutaneously (s.c.) at its CD97 (convulsive dose 97%), the dose of Chemical (PIC) that produced clonic seizures in 97% into a loose fold of skin in the midline of the neck in a volume of 10 ul/g (mice) body weight. The animals were then transferred to observation cages and observed continuously for 45 min (PIC). Clonic seizure was elicited in approximately 97% of control group. Protection was defined as a complete absence of clonic seizure over the 45-min observation period. The effective dose of compound necessary to protect against generalized convulsive seizures to 50% of controls (i.e. ED50) was determined by log probit analysis using SPSS software program (SPSS Inc.). (Reference; White H. S., J. H. Woodhead, K. S. Wilcox, J. P. Stables, H. J. Kupferberg, and H. H. Wolf. General Principles; Discovery and Preclinical De-velopment of Antiepileptic Drugs. In: R. H. Levy, R. H. Mattson, B. S. Meldrum, and E. Perucca, eds. Antiepileptic Drugs, 5th Ed. Lippincott Williams & Wilkins, Philadelphia 2002: pp. 36-48.) The obtained results are shown in following Table 10.

`C[C@@H](OS(N)(=O)=O)[C@H](OS(N)(=O)=O)c1ccccc1Cl` [Example 85] was tested, and the “MES test (po) Peak time” value (ICR mice [1]) was 2 h, the responders at 100 mg/kg (ICR mice [1]; po, 100 mg/kg, read-out: MES test (po) efficacy %) was 16.6% and the “PIC(ip) Peak Time” value (ICR mice [2]) was 4 h. The “PIC(ip) efficacy %” value (ICR mice [2]; 30 mg/kg) was 30(33.3%).
